Values joined by “and” are separate entries in the source; they are usually repeats but may differ in a detail not shown here. Identical values can stand only once.
Tests used:
Anopheles arabiensis [1] = assay: Insecticidal in Anopheles arabiensis assessed as mortality fed with compound treated bovine blood at 200 microg/kg observed within 2 to 4 days after blood feeding relative to control; assay type: functional, organism-based; settings: dose 200.0 µg/kg, time 2-4 day
Anopheles stephensi [2] = assay: Insecticidal in Anopheles stephensi assessed as mortality rate membrane-fed with blood of compound treated mouse at 600 microg/kg observed within 6 days relative to control; assay type: functional, organism-based; settings: dose 600.0 µg/kg, time 6.0 day
Anopheles sp. [3] = assay: Insecticidal in Anopheles sp. assessed as mortality fed with treated bovine blood containing 1% of compound observed within 4 days after a blood meal on 7 days post treatment relative to control; assay type: functional, organism-based; settings: time 4.0 day
Plasmodium vivax [4] = assay: Antimalarial activity against Plasmodium vivax assessed as reduction in infection in Anopheles sp. mosquito midgut fed with blood isolated from compound treated parasite-infected human at 40 ng/ml observed after 7 days relative to control; assay type: functional, organism-based; settings: time 7.0 day
Anopheles sp. [5] = assay: Insecticidal in Anopheles sp. assessed as mortality fed with compound treated human blood at 400 microg/kg in the presence of 6 mg/kg diethylcarbamazine citrate died in 9 days relative to control; assay type: functional, organism-based; settings: dose 400.0 µg/kg, time 9.0 day
Anopheles arabiensis [6] = assay: Insecticidal in Anopheles arabiensis assessed as reduction in number of eggs fed with compound treated bovine blood at 200 microg/kg relative to control; assay type: functional, organism-based; design: scale not given: the % may be the effect or the level left; settings: dose 200.0 µg/kg
Anopheles sp. [7] = assay: In vivo Insecticidal in Anopheles sp. assessed as lethality membrane-fed with compound treated human blood at 400 microg/kg per day in presence of combination of 120 mg dihydroartemisinin, 960 mg piperaquine and 30 mg primaquine observed after 7 days; assay type: functional, organism-based; settings: dose 400.0 µg/kg, time 7.0 day
Aedes albopictus = assay: Insecticidal in Aedes albopictus assessed as mortality rate membrane-fed with compound treated human blood at 10 to 100 microg/mL observed within 7 days relative to control; assay type: functional, organism-based; settings: dose 10-100 µg/ml, time 7.0 day
Plasmodium vivax [8] = assay: Antimalarial activity against Plasmodium vivax assessed as reduction in […] in Anopheles darlingi mosquito fed with blood containing plasma isolated from compound treated human observed after 4 days relative to control; assay type: functional, organism-based; settings: time 4.0 day, dose or concentration not given here
Anopheles sp. [9] = assay: Insecticidal in Anopheles sp. assessed as mortality fed with compound treated human blood at 400 microg/kg in the presence of 6 mg/kg diethylcarbamazine citrate observed in 24 hrs relative to control; assay type: functional, organism-based; settings: dose 400.0 µg/kg
Culex pipiens = assay: Insecticidal in Culex pipiens larvae measured after 48 hrs; assay type: functional
Anopheles sp. [10] = assay: Insecticidal in Anopheles sp. infected with Plasmodium falciparum gametocytes assessed as mortality fed with compound treated bovine blood at 200 microg/kg observed within 2.87 days feeding at 2 days post treatment relative to control; assay type: functional, organism-based; settings: dose 200.0 µg/kg, time 2.87 day
Anopheles darlingi = assay: Insecticidal in Anopheles darlingi infected with Plasmodium vivax assessed as mortality rate midgut fed with blood isolated from compound treated parasite-infected human observed after 7 days relative to control; assay type: functional, organism-based; settings: time 7.0 day
Anopheles gambiae [11] = assay: Insecticidal in Anopheles gambiae assessed as median lethal concentration fed with compound treated bovine blood observed after 9 days; assay type: functional, organism-based; settings: time 9.0 day
Anopheles sp. [12] = assay: Insecticidal in Anopheles sp. infected with Plasmodium falciparum gametocytes assessed as reduction in survival fed with compound treated bovine blood at 200 microg/kg feeding at 2 days after injection relative to control; assay type: functional, organism-based; settings: dose 200.0 µg/kg
Anopheles sp. [13] = assay: Insecticidal in Anopheles sp. assessed as lethal concentration membrane-fed with compound treated blood; assay type: functional, organism-based
Anopheles sp. [14] = assay: Insecticidal in Anopheles sp. assessed as egg hatching rate fed with compound treated human blood administered as a single dose at 10 microg/ml fed at 4 hrs post treatment; assay type: functional, organism-based; settings: dose 10.0 µg/ml
Plasmodium berghei [15] = assay: In vivo antimalarial activity against blood stage Plasmodium berghei transfected with GFP infected in mouse assessed as increase in mouse survival days at 0.5 mg/kg for 3 days; assay type: functional, organism-based; settings: time 3.0 day
Anopheles sp. [16] = assay: Insecticidal in Anopheles sp. assessed as mortality fed with treated bovine blood containing 1% of compound observed within 4 days after a blood meal on 2 days post treatment relative to control; assay type: functional, organism-based; settings: time 4.0 day
Anopheles stephensi [17] = assay: Insecticidal in Anopheles stephensi assessed as lethal concentration membrane-fed with compound treated blood; assay type: functional, organism-based
Anopheles gambiae [18] = assay: Insecticidal in Anopheles gambiae G3 assessed as reduction in survivorship fed with blood of compound treated human at 150 microg/kg administered once; assay type: functional, organism-based; settings: dose 150.0 µg/kg
Anopheles stephensi [19] = assay: Insecticidal in Anopheles stephensi assessed as mortality rate fed with blood of compound treated mouse at […], sc before 12 hrs and observed after 36 hrs relative to control; assay type: functional, organism-based
Anopheles sp. [20] = assay: Insecticidal in Anopheles sp. infected with Plasmodium falciparum gametocytes assessed as survival fed with compound treated bovine blood at 200 microg/kg feeding at 2 weeks after injection; assay type: functional, organism-based; settings: dose 200.0 µg/kg
Anopheles arabiensis [21] = assay: Insecticidal in Anopheles arabiensis assessed as percentage of reduction in mortality in 3 day survivorship fed with compound treated bovine blood at 73 mg observed for 24 weeks relative to control; assay type: functional, organism-based
Anopheles sp. [22] = assay: Insecticidal in Anopheles sp. assessed as mortality relative to control; assay type: functional, organism-based
Anopheles gambiae [23] = assay: Insecticidal in Anopheles gambiae assessed as lethal concentration membrane-fed with compound treated human blood at 200 microg/kg observed after 48 to 72 hrs; assay type: functional, organism-based; settings: dose 200.0 µg/kg, time 48-72 hrs
Anopheles sp. [24] = assay: Insecticidal in Anopheles sp. assessed as mortality rate fed with compound treated human blood at 400 microg/kg observed in 48 hrs relative to control; assay type: functional, organism-based; settings: dose 400.0 µg/kg
Anopheles sp. [25] = assay: Insecticidal in Anopheles sp. infected with Plasmodium vivax assessed as mortality rate fed with blood isolated from compound treated human at 200 microg/kg observed for 5 days; assay type: functional, organism-based; settings: dose 200.0 µg/kg, time 5.0 day
Anopheles sp. [26] = assay: Insecticidal in Anopheles sp. infected with Plasmodium vivax assessed as lethality fed with blood isolated from compound treated human observed for 5 days; assay type: functional, organism-based; settings: time 5.0 day
Anopheles sp. [27] = assay: Insecticidal in Anopheles sp. infected with Plasmodium vivax assessed as percentage of survival midgut fed with blood isolated from compound treated parasite-infected human at 40 ng/ml observed after 7 days relative to control; assay type: functional, organism-based; settings: time 7.0 day
Aedes aegypti = assay: Insecticidal in Aedes aegypti assessed as reduction in survivorship fed with blood of compound treated human at 150 microg/kg administered once; assay type: functional, organism-based; settings: dose 150.0 µg/kg
Anopheles gambiae [28] = assay: Insecticidal in Anopheles gambiae assessed as probability of survival per day fed with blood of compound treated human at 150 microg/kg observed for 6 days relative to control; assay type: functional, organism-based; settings: dose 150.0 µg/kg, time 6.0 day
Plasmodium vivax [29] = assay: Antimalarial activity against Plasmodium vivax assessed as sporogony lethality in Anopheles darlingi mosquito fed with blood isolated from compound treated parasite-infected human observed after 7 days by measuring reduction in parasite prevalence level at Lc50 relative to control; assay type: functional, organism-based; design: scale not given: the % may be the effect or the level left; settings: time 7.0 day
Plasmodium berghei [30] = assay: In vivo antimalarial activity against liver stage Plasmodium berghei infected in mouse assessed as inhibition of liver infection at 10 mg/kg measured 44 to 46 hrs post-infection by bioluminescence assay relative to control; assay type: functional, organism-based; settings: time 44-46 hrs
Anopheles sp. [31] = assay: Insecticidal in Anopheles sp. assessed as mean plasma concentration causing death within 2-4 days fed with compound treated pig blood administered as a single dose at 600 microg/kg at 1 day post treatment observed within 2 to 4 days; assay type: functional, organism-based; settings: dose 600.0 µg/kg, time 2-4 day, pooled result: one value given for 4 cell lines, strains, targets or settings
Anopheles sp. [32] = assay: Insecticidal in Anopheles sp. assessed as mean plasma concentration fed with compound treated pig blood administered as a single dose at 600 microg/kg at 22 day post treatment; assay type: functional, organism-based; settings: dose 600.0 µg/kg

## IVERMECTIN
Anopheles arabiensis [1]
  mortality: 80%
Anopheles stephensi [2]
  mortality: 85%
Anopheles sp. [3]
  mortality: 80%
Plasmodium vivax [4]
  inhibition: 61.3%
Anopheles sp. [5]
  mortality: 100%
Anopheles arabiensis [6]
  Activity: 82%
Anopheles sp. [7]
  LC50: 0.00286 mg/L
Aedes albopictus
  mortality: 100%
Plasmodium vivax [8]
  inhibition: 99.9%
Anopheles sp. [9]
  mortality: 70%
Culex pipiens
  LC50: 3.94 ppb
Anopheles sp. [10]
  mortality: 100%
Anopheles darlingi
  mortality: 97.1%
Anopheles gambiae [11]
  LC50: 19.8 ppb
Anopheles sp. [12]
  Survival: 86%
Anopheles sp. [13]
  MLC: 50 ppm
Anopheles sp. [14]
  Activity: 74.8
Plasmodium berghei [15]
  Survival: 23 days
Anopheles sp. [16]
  mortality: 60%
Anopheles stephensi [17]
  MLC: 1 ppm
Anopheles gambiae [18]
  LC50: 0.0224 mg/L
Anopheles stephensi [19]
  mortality: 100%
Anopheles sp. [20]
  Survival: 2 days
Anopheles arabiensis [21]
  mortality: 50%
Anopheles sp. [22]
  mortality: 90%
Anopheles gambiae [23]
  LC50: 0.01 mg/L and 0.007 mg/L
Anopheles sp. [24]
  mortality: 69%
Anopheles sp. [25]
  mortality: 50%
Anopheles sp. [26]
  LC5: 18.3 ng/mL
Anopheles sp. [27]
  Survival: 22%
Aedes aegypti
  LC50: 0.601 mg/L
Anopheles gambiae [28]
  Survival: > 10%
Plasmodium vivax [29]
  Activity: 22.6% and 17.1%
Plasmodium berghei [30]
  inhibition: 80%
Anopheles sp. [31]
  Cp: 15.3 ng/mL
Anopheles sp. [32]
  Cp: 1.4 ng/mL

Reference: ChEMBL document CHEMBL5226321, “Ivermectin: A Promising Therapeutic for Fighting Malaria. Current Status and Perspective” (J Med Chem, 2021)
